Data reported in patent publication US9133219B2, “Bicyclic antibiotics” (Basilea Pharmaceutica AG, priority 2009, dated 2015).
Converted amounts (≈) assume the structure as drawn. Where two headings read alike, the source gives them in different places.

Legend:
Format in all cases: cell-based
[1] = test system: Staphylococcus epidermidis; assay: Anti-microbial activity assay, MIC by broth microdilution; conditions: strain ATCC14990; for MIC: Staphylococcus epidermidis
Protocol: (§1) Anti-Microbial Activity Assay.
(§2) The antibacterial activity of compounds is determined by the minimal inhibitory concentration (MIC) method. MICs for all bacteria except pneumococci and Haemophilus influenzae are obtained by broth microdilution with cation-adjusted Mueller-Hinton broth (CAMHB; BBL), according to CLSI guidelines (National Committee for Clinical Laboratory Standards. 2003. Methods for dilution antimicrobial susceptibility tests for bacteria that grow aerobically, 5th ed.; approved standard M7-A6. National Committee for Clinical Laboratory Standards, Wayne, Pa.), with the following modifications: (i) for pneumococci CAMHB is supplemented with 5% (^v/v) horse serum; (ii) for Haemophilus influenzae CAMHB is supplemented with 5% (^v/v) Fildes enrichment (BBL) (Pankuch, G. A., Hoellman, D. B., Lin, G., Bajaksouzian, S., Jacobs, M. R., and Appelbaum, P. C. 1998. Activity of HMR 3647 compared to those of five agents against Haemophilus influenzae and Moraxella catarrhalis by MIC determination and time-kill assay. Antimicrob. Agents Chemother. 42:3032-3034). Microtiter plates are incubated at 35° C. in ambient air for 20 to 24 h, then inspected using an illuminated microtiter plate reader fitted with a magnifying mirror (MIC 2000; Cooke Laboratory Products, Alexandria, Va.). Compounds of the present invention are tested against several bacteria strains comprising some Acinetobacter baumannii, Enterococcus faecalis, Enterococcus faecitan, Escherichia coli, Haemophilus influenzae, Klebsiella pneumoniae, Pseudomonas aeruginosa, Staphylococcus aureus, Staphylococcus epidermidis and Streptococcus pneumoniae.

Staphylococcus aureus = assay: as above; conditions: for MIC: Staphylococcus aureus
Protocol: as §1, §2

Escherichia coli = assay: as above; conditions: for MIC: Escherichia coli
Protocol: as §1, §2

Streptococcus pneumoniae = assay: Anti-microbial activity assay, MIC by broth microdilution (CAMHB with 5% horse serum); conditions: for MIC: Streptococcus pneumoniae
Protocol: as §1, §2

[2] = test system: Staphylococcus aureus and/or Staphylococcus epidermidis; assay: MIC summary statement, staphylococci; conditions: generally, for Staphylococcus aureus and/or Staphylococcus epidermidis
Protocol: as §1, §2

[3] = strain ATCC29213, read-out: MIC Staphylococcus aureus ATCC29213
[4] = strain UB1005, read-out: MIC Escherichia coli UB1005
[5] = strain ATCC49619, CAMHB with 5% horse serum, read-out: MIC Streptococcus pneumoniae ATCC49619
[6] = S. aureus ATCC29213, comparison of C4 and C3 position of the methoxyquinoline, same side chain, read-out: MIC
[7] = E. coli UB1005, comparison of C4 and C3 position of the methoxyquinoline, same side chain, read-out: MIC
[8] = S. pneumoniae ATCC49619, comparison of C4 and C3 position of the methoxyquinoline, same side chain, read-out: MIC
[9] = strain ATCC49619, CAMHB with 5% horse serum

COc1cnc2ccc(OCCN3CCC(NC(=O)c4ccc5c(c4)NC(=O)CS5)CC3)nc2c1 [Example 18, 3-oxo-3,4-dihydro-2H-benzo[1,4]thiazine-6-carboxylic acid {1-[2-(7-methoxy-[1,5]naphthyridin-2-yloxy)-ethyl]-piperidin-4-yl}-amide]
MIC [1]: ≤ 2 µg/mL | MIC (Staphylococcus aureus; [3]): ≤ 2 µg/mL | MIC (Escherichia coli; [4]): 8 µg/mL (≈ 16.2 µM) | MIC (Streptococcus pneumoniae; [5]): 4 µg/mL (≈ 8.1 µM) | MIC [2]: ≤ 2 µg/mL

COc1ccc2ncc(OCCN3CCC(NC(=O)c4cc5c(cc4Cl)SCC(=O)N5)CC3)cc2n1 [Example 16, 7-chloro-3-oxo-3,4-dihydro-2H-benzo[1,4]thiazine-6-carboxylic acid {1-[2-(6-methoxy-[1,5]naphthyridin-3-yloxy)-ethyl]-piperidin-4-yl}-amide]
MIC [1]: 4 µg/mL (≈ 7.58 µM) | MIC (Staphylococcus aureus; [3]): ≤ 2 µg/mL | MIC (Escherichia coli; [4]): 8 µg/mL (≈ 15.2 µM) | MIC (Streptococcus pneumoniae; [5]): 8 µg/mL (≈ 15.2 µM) | MIC [2]: ≤ 2 µg/mL

COc1ccc2ncc(C(=O)OC[C@H]3CC[C@H](NCc4ccc5c(c4)OCCO5)CC3)cc2c1 [Example 33, 6-methoxy-quinoline-3-carboxylic acid trans-4-[(2,3-dihydro-benzo[1,4]dioxin-6-ylmethyl)-amino]-cyclohexylmethyl ester]
MIC [1]: 8 µg/mL (≈ 17.3 µM) | MIC (Staphylococcus aureus; [3]): 4 µg/mL (≈ 8.65 µM) | MIC (Escherichia coli; [4]): > 32 µg/mL | MIC (Streptococcus pneumoniae; [5]): 8 µg/mL (≈ 17.3 µM)

COc1ccc2ncc(C(=O)OC[C@H]3CC[C@H](N(C)Cc4ccc5c(c4)OCCO5)CC3)cc2c1 [Example 32, 6-methoxy-quinoline-3-carboxylic acid trans-4-[(2,3-dihydro-benzo[1,4]dioxin-6-ylmethyl)-methyl-amino]-cyclohexylmethyl ester]
MIC [1]: 16 µg/mL (≈ 33.6 µM) | MIC (Staphylococcus aureus; [3]): 8 µg/mL (≈ 16.8 µM) | MIC (Escherichia coli; [4]): > 32 µg/mL | MIC (Streptococcus pneumoniae; [5]): 32 µg/mL (≈ 67.1 µM)

COc1ccc2ncc(C(=O)OC[C@H]3CC[C@H](NC(=O)c4ccc5c(c4)NC(=O)CS5)CC3)cc2c1 [Example 28, 6-methoxy-quinoline-3-carboxylic acid trans-4-[(3-oxo-3,4-dihydro-2H-benzo[1,4]thiazine-6-carbonyl)-amino]-cyclohexylmethyl ester]
MIC [1]: ≤ 2 µg/mL | MIC (Staphylococcus aureus; [3]): ≤ 2 µg/mL | MIC (Escherichia coli; [4]): > 32 µg/mL | MIC (Streptococcus pneumoniae; [5]): > 32 µg/mL | MIC [2]: ≤ 2 µg/mL

COc1ccc2ncc(C(=O)OC[C@H]3CC[C@H](NC(=O)c4ccc5c(n4)NC(=O)CO5)CC3)cc2n1 [Example 30, 6-methoxy-[1,5]naphthyridine-3-carboxylic acid trans-4-[(3-oxo-3,4-dihydro-2H-pyrido[3,2-b][1,4]oxazine-6-carbonyl)-amino]-cyclohexylmethyl ester]
MIC [1]: 4 µg/mL (≈ 8.14 µM) | MIC (Staphylococcus aureus; [3]): ≤ 2 µg/mL | MIC (Escherichia coli; [4]): > 32 µg/mL | MIC (Streptococcus pneumoniae; [5]): > 32 µg/mL | MIC [2]: ≤ 2 µg/mL

COc1ccc2nccc(OC[C@H]3CC[C@H](NCc4ccc5c(c4)NC(=O)CO5)CC3)c2c1 [reference compound]
MIC (Staphylococcus aureus; [6]): 1 µg/mL (≈ 2.23 µM) | MIC (Escherichia coli; [7]): 1 µg/mL (≈ 2.23 µM) | MIC (Streptococcus pneumoniae; [8]): 2 µg/mL (≈ 4.47 µM)

COc1ccc2ncc(SCCN3CCC(NCc4ccc5c(c4)NC(=O)CO5)CC3)nc2c1 [Example 40]
MIC Staphylococcus epidermidis ATCC14990 [1]: ≦2 mg/L | MIC Staphylococcus aureus ATCC29213 (Staphylococcus aureus; strain ATCC29213): ≦2 mg/L | MIC Escherichia coli UB1005 (Escherichia coli; strain UB1005): ≦2 mg/L | MIC Streptococcus pneumoniae ATCC49619 (Streptococcus pneumoniae; [9]): ≦2 mg/L

COc1ccc2ncc(OCCN3CCC(NC(=O)c4ccc5c(c4)NC(=O)CS5)CC3)nc2c1 [Example 21, 3-oxo-3,4-dihydro-2H-benzo[1,4]thiazine-6-carboxylic acid {1-[2-(7-methoxy-quinoxalin-2-yloxy)-ethyl]-piperidin-4-yl}-amide]
MIC Staphylococcus epidermidis ATCC14990 [1]: 16 µg/mL (≈ 32.4 µM) | MIC Staphylococcus aureus ATCC29213 (Staphylococcus aureus; strain ATCC29213): 8 µg/mL (≈ 16.2 µM) | MIC Escherichia coli UB1005 (Escherichia coli; strain UB1005): ≧32 mg/L | MIC Streptococcus pneumoniae ATCC49619 (Streptococcus pneumoniae; [9]): >32 µg/mL

COc1ccc2ncc(OCCN3CCC(N(C)Cc4ccc5c(c4)OCCO5)CC3)nc2c1 [Example 10, (2,3-dihydro-benzo[1,4]dioxin-6-ylmethyl)-{1-[2-(7-methoxy-quinoxalin-2-yloxy)-ethyl]-piperidin-4-yl}-methyl-amine]
MIC [1]: 8 µg/mL (≈ 17.2 µM) | MIC (Staphylococcus aureus; [3]): 4 µg/mL (≈ 8.61 µM) | MIC (Escherichia coli; [4]): > 32 µg/mL | MIC (Streptococcus pneumoniae; [5]): 8 µg/mL (≈ 17.2 µM)

COc1ccc2ncc(OCCN3CCC(CNC(=O)c4cc(-c5cccs5)on4)C3)nc2c1 (centres unmarked) [Example 26, 5-thiophen-2-yl-isoxazole-3-carboxylic acid {1-[2-(7-methoxy-quinoxalin-2-yloxy)-ethyl]-pyrrolidin-3-ylmethyl}-amide]
MIC [1]: 16 µg/mL (≈ 33.4 µM) | MIC (Staphylococcus aureus; [3]): 4 µg/mL (≈ 8.34 µM) | MIC (Escherichia coli; [4]): > 32 µg/mL | MIC (Streptococcus pneumoniae; [5]): 8 µg/mL (≈ 16.7 µM)

O=C1CSc2ccc(C(=O)NC3CCN(CCOc4cnc5ccc([N+](=O)[O-])cc5n4)CC3)cc2N1 [Example 13, 3-oxo-3,4-dihydro-2H-benzo[1,4]thiazine-6-carboxylic acid {1-[2-(7-nitro-quinoxalin-2-yloxy)-ethyl]-piperidin-4-yl}-amide]
MIC [1]: > 32 µg/mL | MIC (Staphylococcus aureus; [3]): 4 µg/mL (≈ 7.87 µM) | MIC (Escherichia coli; [4]): > 32 µg/mL | MIC (Streptococcus pneumoniae; [5]): > 32 µg/mL

COc1ccc2ncc(OC[C@H]3CC[C@H](NCc4ccc5c(c4)OCCO5)CC3)cc2c1 [reference compound]
MIC (Staphylococcus aureus; [6]): > 32 µg/mL | MIC (Escherichia coli; [7]): > 32 µg/mL | MIC (Streptococcus pneumoniae; [8]): 32 µg/mL (≈ 73.6 µM)

COc1ccc2ncc(OCCN3CCC(CNC(=O)c4cc5c(cc4Cl)SCC(=O)N5)CC3)nc2c1 [Example 24, 7-chloro-3-oxo-3,4-dihydro-2H-benzo[1,4]thiazine-6-carboxylic acid {1-[2-(7-methoxy-quinoxalin-2-yloxy)-ethyl]-piperidin-4-ylmethyl}-amide]
MIC [1]: 8 µg/mL (≈ 14.8 µM) | MIC (Staphylococcus aureus; [3]): 8 µg/mL (≈ 14.8 µM) | MIC (Escherichia coli; [4]): 4 µg/mL (≈ 7.38 µM) | MIC (Streptococcus pneumoniae; [5]): 16 µg/mL (≈ 29.5 µM)

COc1ccc2ncc(OCCN3CCC(N(C)Cc4ccc5c(c4)NC(=O)CS5)CC3)nc2c1 [Example 25, 6-[({1-[2-(7-methoxy-quinoxalin-2-yloxy)-ethyl]-piperidin-4-yl}-methyl-amino)-methyl]-4H-benzo[1,4]thiazin-3-one]
MIC [1]: 16 µg/mL (≈ 32.4 µM) | MIC (Staphylococcus aureus; [3]): 8 µg/mL (≈ 16.2 µM) | MIC (Escherichia coli; [4]): 8 µg/mL (≈ 16.2 µM) | MIC (Streptococcus pneumoniae; [5]): 16 µg/mL (≈ 32.4 µM)

CCC(Oc1cnc2ccc(OC)cc2n1)N1CCCC(NCc2ccc3c(c2)NC(=O)CS3)C1 (centres unmarked) [Example 11, 6-({1-[1-(7-methoxy-quinoxalin-2-yloxy)-propyl]-piperidin-3-ylamino}-methyl)-4H-benzo[1,4]thiazin-3-one]
MIC [1]: 4 µg/mL (≈ 8.1 µM) | MIC (Staphylococcus aureus; [3]): 4 µg/mL (≈ 8.1 µM) | MIC (Escherichia coli; [4]): 16 µg/mL (≈ 32.4 µM) | MIC (Streptococcus pneumoniae; [5]): 4 µg/mL (≈ 8.1 µM)

COc1ccc2nccc(OC[C@H]3CC[C@H](NCc4ccc5c(c4)OCCO5)CC3)c2c1 [reference compound]
MIC (Staphylococcus aureus; [6]): 0.5 µg/mL (≈ 1.15 µM) | MIC (Escherichia coli; [7]): 16 µg/mL (≈ 36.8 µM) | MIC (Streptococcus pneumoniae; [8]): 0.5 µg/mL (≈ 1.15 µM)

COc1ccc2ncc(OC[C@H]3CC[C@H](NCc4ccc5c(c4)NC(=O)CO5)CC3)cc2c1 [reference compound]
MIC (Staphylococcus aureus; [6]): > 32 µg/mL | MIC (Escherichia coli; [7]): > 32 µg/mL | MIC (Streptococcus pneumoniae; [8]): 32 µg/mL (≈ 71.5 µM)

COc1ccc2ncc(OCCCN3CCC(NC(=O)c4ccc5c(c4)NC(=O)CS5)C3)nc2c1 (centres unmarked) [Example 23]
MIC Staphylococcus epidermidis ATCC14990 [1]: 4 µg/mL (≈ 8.1 µM) | MIC Staphylococcus aureus ATCC29213 (Staphylococcus aureus; strain ATCC29213): 4 µg/mL (≈ 8.1 µM) | MIC Escherichia coli UB1005 (Escherichia coli; strain UB1005): 16 µg/mL (≈ 32.4 µM) | MIC Streptococcus pneumoniae ATCC49619 (Streptococcus pneumoniae; [9]): 16 µg/mL (≈ 32.4 µM)

COc1ccc2ncc(OCCCN3CCC(CNC(=O)c4cc5c(cc4Cl)SCCN5)C3)nc2c1 (centres unmarked) [Example 27, 7-chloro-3,4-dihydro-2H-benzo[1,4]thiazine-6-carboxylic acid {1-[3-(7-methoxy-quinoxalin-2-yloxy)-propyl]-pyrrolidin-3-ylmethyl}-amide]
MIC [1]: 32 µg/mL (≈ 60.6 µM) | MIC (Staphylococcus aureus; [3]): 8 µg/mL (≈ 15.1 µM) | MIC (Escherichia coli; [4]): 16 µg/mL (≈ 30.3 µM) | MIC (Streptococcus pneumoniae; [5]): 32 µg/mL (≈ 60.6 µM)

COc1cccc2ncc(OCCN3CCC(NC(=O)c4ccc5c(c4)NC(=O)CS5)CC3)nc12 [Example 12, 3-oxo-3,4-dihydro-2H-benzo[1,4]thiazine-6-carboxylic acid {1-[2-(8-methoxy-quinoxalin-2-yloxy)-ethyl]-piperidin-4-yl}-amide]
MIC [1]: 4 µg/mL (≈ 8.1 µM) | MIC (Staphylococcus aureus; [3]): 4 µg/mL (≈ 8.1 µM) | MIC (Escherichia coli; [4]): ≥ 32 µg/mL | MIC (Streptococcus pneumoniae; [5]): 16 µg/mL (≈ 32.4 µM)

COc1ccc2ncc(OCCN3CC(NC(=O)c4ccc5c(c4)NC(=O)CS5)C3)nc2c1 [Example 22, 3-oxo-3,4-dihydro-2H-benzo[1,4]thiazine-6-carboxylic acid {1-[2-(7-methoxy-quinoxalin-2-yloxy)-ethyl]-azetidin-3-yl}-amide]
MIC [1]: 4 µg/mL (≈ 8.59 µM) | MIC (Staphylococcus aureus; [3]): 4 µg/mL (≈ 8.59 µM) | MIC (Escherichia coli; [4]): 16 µg/mL (≈ 34.4 µM) | MIC (Streptococcus pneumoniae; [5]): 32 µg/mL (≈ 68.7 µM)

CCN(Cc1ccc2c(c1)OCCO2)[C@H]1CC[C@H](COC(=O)c2cnc3ccc(OC)cc3c2)CC1 [Example 34, 6-methoxy-quinoline-3-carboxylic acid trans-4-[(2,3-dihydro-benzo[1,4]dioxin-6-ylmethyl)-ethyl-amino]-cyclohexylmethyl ester]
MIC [1]: > 32 µg/mL | MIC (Staphylococcus aureus; [3]): 8 µg/mL (≈ 16.3 µM) | MIC (Escherichia coli; [4]): > 32 µg/mL | MIC (Streptococcus pneumoniae; [5]): > 32 µg/mL
